Assay [1] deals with B6μ, Heμ and CXμ mice. The conditions noted are these: mouse, in vivo, ip, 10 mg/kg.
Assay [2] has as its system B6μ, Heμ and CXμ mice. As to the kind of experiment: hot-plate test. The class given is in vivo, mouse. The conditions noted are these: CXμ mice vs B6μ and Heμ littermates; 10 mg/kg intraperitoneal; 20 minutes after injection; plate 52.0°C; p<0.05. On the technique in general: Hot-plate and tail-flick tests time the reaction to a heat stimulus.

Regarding `CN1CC[C@]23c4c5ccc(O)c4O[C@H]2[C@@H](O)C=C[C@H]3[C@H]1C5.Cl` [morphine, Morphine hydrochloride], in the assay on B6μ, Heμ and CXμ mice [1], the “latency of response to heat stimulus (drug-induced analgesia), tail-flick test” value is given as “significantly shorter latency than the littermates”. Moreover, the “latency of response to heat stimulus (first jumping; drug-induced analgesia), hot-plate test” value in the assay with B6μ, Heμ and CXμ mice [2] is on record as “significantly shorter latency than the littermates”.

(Values after patent US20030003050A1 (priority 2001, published 2003).)
